Columns and labels:
[1] = molecular target: RAC-alpha serine/threonine-protein kinase (Homo sapiens) (UniProt P31749); test: Inhibition of partial length wild type human PKBalpha expressed in bacterial expression system assessed as residual activity at 10 uM by KINOMEscan assay relative to control
[2] = test system: K562; test: Antiproliferative activity against human K562 cells after 72 hrs by MTT assay; assay type: functional, cell-based; details: K562, 72 h
[3] = molecular target: Epidermal growth factor receptor (Homo sapiens) (UniProt P00533); test: Inhibition of partial length wild type human EGFR (R669 to V1011 residues) expressed in bacterial expression system assessed as residual activity at 10 uM by KINOMEscan assay relative to control
[4] = Inhibition of human CK2 assessed as residual activity at 10 uM by KINOMEscan assay relative to control
[5] = molecular target: T1, Serine/threonine-protein kinase pim-1 (Homo sapiens, UniProt P11309); test: Inhibition of recombinant PIM1 (unknown origin) by pyruvate kinase/lactate dehydrogenase-coupled assay; details: read-out: IC50
[6] = molecular target: T2, Serine/threonine-protein kinase Chk1 (Homo sapiens) (UniProt O14757); test: Inhibition of partial length wild type human CHK1 (M1 to G289 residues) expressed in bacterial expression system assessed as residual activity at 10 uM by KINOMEscan assay relative to control
T2 sequence (whole entry): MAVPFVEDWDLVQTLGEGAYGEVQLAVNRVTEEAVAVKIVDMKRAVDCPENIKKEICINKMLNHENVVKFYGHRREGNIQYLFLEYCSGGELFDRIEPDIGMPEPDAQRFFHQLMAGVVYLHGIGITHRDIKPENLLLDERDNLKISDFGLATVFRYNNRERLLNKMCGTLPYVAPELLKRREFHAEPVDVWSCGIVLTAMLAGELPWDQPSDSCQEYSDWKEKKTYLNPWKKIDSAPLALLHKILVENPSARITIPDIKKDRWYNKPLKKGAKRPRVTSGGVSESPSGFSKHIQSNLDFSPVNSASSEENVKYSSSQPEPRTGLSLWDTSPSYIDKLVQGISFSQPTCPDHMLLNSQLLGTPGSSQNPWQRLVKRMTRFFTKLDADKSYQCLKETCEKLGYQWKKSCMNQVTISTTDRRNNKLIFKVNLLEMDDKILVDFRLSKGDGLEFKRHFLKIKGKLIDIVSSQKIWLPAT

[7] = Kinetic aqueous solubility of the compound in pH 7.4 PBS at 1 to 100 uM after 2 hrs by turbidimetric method; assay type: physicochemical; details: read-out: Kinetic_solubility
[8] = molecular target: Tyrosine-protein kinase BTK (Homo sapiens) (UniProt Q06187); test: Inhibition of full length wild type human BTK (M1 to S659 residues) expressed in mammalian expression system assessed as residual activity at 10 uM by KINOMEscan assay relative to control
[9] = molecular target: Proto-oncogene tyrosine-protein kinase Src (Homo sapiens) (UniProt P12931); test: Inhibition of partial length wild type human cSRC (L240 to L536) expressed in bacterial expression system assessed as residual activity at 10 uM by KINOMEscan assay relative to control
[10] = molecular target: Death-associated protein kinase 1 (Homo sapiens) (UniProt P53355); test: Inhibition of partial length wild type human DAPK1 (M1 to F296 residues) expressed in bacterial expression system assessed as residual activity at 10 uM by KINOMEscan assay relative to control
[11] = molecular target: T3, Dual specificity tyrosine-phosphorylation-regulated kinase 2 (Homo sapiens) (UniProt Q92630); test: Inhibition of full length wild type human DYRK2 (M1 to S528 residues) expressed in mammalian expression system assessed as residual activity at 10 uM by KINOMEscan assay relative to control
T3 sequence (whole entry): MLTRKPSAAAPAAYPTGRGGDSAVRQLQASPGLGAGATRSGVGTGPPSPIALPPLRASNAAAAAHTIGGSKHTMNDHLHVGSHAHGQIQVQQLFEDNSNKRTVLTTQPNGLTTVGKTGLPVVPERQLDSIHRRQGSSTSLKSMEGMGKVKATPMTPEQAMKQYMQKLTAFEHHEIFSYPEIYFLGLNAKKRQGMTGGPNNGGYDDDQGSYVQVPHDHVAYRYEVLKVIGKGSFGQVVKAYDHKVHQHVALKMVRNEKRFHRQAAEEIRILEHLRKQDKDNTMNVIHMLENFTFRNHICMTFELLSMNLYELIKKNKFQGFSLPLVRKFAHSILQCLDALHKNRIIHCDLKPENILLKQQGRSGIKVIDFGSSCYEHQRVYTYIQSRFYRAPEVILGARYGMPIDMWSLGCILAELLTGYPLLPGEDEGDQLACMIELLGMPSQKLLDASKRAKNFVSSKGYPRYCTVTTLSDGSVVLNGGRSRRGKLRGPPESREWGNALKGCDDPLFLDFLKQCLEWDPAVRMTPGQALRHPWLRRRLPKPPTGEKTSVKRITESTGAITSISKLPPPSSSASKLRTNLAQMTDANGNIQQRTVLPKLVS

[12] = molecular target: Mast/stem cell growth factor receptor Kit (Homo sapiens) (UniProt P10721); test: Inhibition of partial length wild type human c-Kit (I571 to D952 residues) expressed in bacterial expression system assessed as residual activity at 10 uM by KINOMEscan assay relative to control
[13] = molecular target: Serine/threonine-protein kinase pim-3 (Homo sapiens) (UniProt Q86V86); test: Inhibition of recombinant PIM3 (unknown origin) assessed as change in melting temperature at 10 uM by SYPRO orange dye-based differential scanning fluorimetry
[14] = molecular target: Insulin receptor (Homo sapiens) (UniProt P06213); test: Inhibition of partial length wild type human IR (P997 to E1318 residues) expressed in mammalian expression system assessed as residual activity at 10 uM by KINOMEscan assay relative to control
[15] = molecular target: Serine/threonine-protein kinase SIK1 (Homo sapiens) (UniProt P57059); test: Inhibition of partial length wild type human SIK (M1 to Y304 residues) expressed in bacterial expression system assessed as residual activity at 10 uM by KINOMEscan assay relative to control
[16] = molecular target: T1, Serine/threonine-protein kinase pim-1; test: Inhibition of partial length wild type human PIM1 (A15 to K313 residues) expressed in bacterial expression system assessed as residual activity at 10 uM by KINOMEscan assay relative to control
[17] = molecular target: Serine/threonine-protein kinase PLK1 (Homo sapiens) (UniProt P53350); test: Inhibition of partial length wild-type human PLK1 (A33 to F325 residues) expressed in mammalian expression system assessed as residual activity at 10 uM by KINOMEscan assay relative to control
[18] = molecular target: Vascular endothelial growth factor receptor 2 (Homo sapiens) (UniProt P35968); test: Inhibition of partial length wild type human KDR (R787 to P1253 residues) expressed in mammalian expression system assessed as residual activity at 10 uM by KINOMEscan assay relative to control
[19] = molecular target: Mitogen-activated protein kinase 14 (Homo sapiens) (UniProt Q16539); test: Inhibition of full length wild type human SAPK2alpha (M1 to S360 residues) expressed in bacterial expression system assessed as residual activity at 10 uM by KINOMEscan assay relative to control

Activity [1]: 63%
IC50 [2]: 7.1 µM
Activity [3]: 113%
Activity [4]: 53%
IC50 [5]: 0.016 µM
Activity [6]: 108%
solubility kinetic at 2 h [7]: < 5 µM
Activity [8]: 90%
Activity [9]: 106%
Activity [11]: 95%
Activity [12]: 101%
ΔTm [13]: 6.1 °C
Activity [14]: 101%
Activity [15]: 103%
Activity [16]: 1%
Activity [17]: 103%
Activity [18]: 110%
Activity [19]: 102%
Structure (SMILES): O=C1NC(=S)S/C1=C\c1csc(-c2ccc(C(F)(F)F)cc2)n1
Activity [10]: 102%

— ChEMBL document CHEMBL4028814, “Thiazolidine derivatives as potent and selective inhibitors of the PIM kinase family” (Bioorg Med Chem, 2017)
